According to the NIST ThermoML archive (doi:10.1021/je101008y):
Numbers after ± are expanded uncertainties.

Test: activity coefficient (dimensionless); of the first substance listed, at infinite dilution; xn = mol fraction of the nth substance listed
Conditions: Liquid, Chromatography, x1 = 0

Compound	activity coefficient (318.15 K)	activity coefficient (328.15 K)	activity coefficient (338.15 K)	activity coefficient (348.15 K)	activity coefficient (358.15 K)	activity coefficient (318.2 K)	activity coefficient (328.2 K)	activity coefficient (338.2 K)	activity coefficient (348.2 K)	activity coefficient (358.2 K)
Cc1ccccc1C [1,2-dimethylbenzene] + CCCC[N+]1(C)CCCCC1.N#C[S-]	4.15 ± 0.28	4.18 ± 0.28	4.21 ± 0.29	4.24 ± 0.29	4.26 ± 0.29					
Cc1cccc(C)c1 [1,3-dimethylbenzene] + CCCC[N+]1(C)CCCCC1.N#C[S-]	5.23 ± 0.36	5.25 ± 0.36	5.26 ± 0.36	5.27 ± 0.36	5.28 ± 0.36					
Cc1ccc(C)cc1 [1,4-dimethylbenzene] + CCCC[N+]1(C)CCCCC1.N#C[S-]	5.01 ± 0.34	5.04 ± 0.34	5.07 ± 0.35	5.1 ± 0.35	5.13 ± 0.35					
CC(C)=O [acetone] + CCCC[N+]1(C)CCCCC1.N#C[S-]						1.52 ± 0.1	1.52 ± 0.1	1.53 ± 0.1	1.54 ± 0.1	1.55 ± 0.1
C1CCCCC1 [cyclohexane] + CCCC[N+]1(C)CCCCC1.N#C[S-]	39.8 ± 2.7	35.9 ± 2.5	32.4 ± 2.2	29.4 ± 2	27.5 ± 1.9					
C1CCCCCCC1 [cyclooctane] + CCCC[N+]1(C)CCCCC1.N#C[S-]	60 ± 4	54 ± 4	49.1 ± 3.4	44.7 ± 3.1	42.1 ± 2.9					
CCOCC [diethyl ether] + CCCC[N+]1(C)CCCCC1.N#C[S-]						12 ± 0.8	11.6 ± 0.8	11.1 ± 0.8	10.8 ± 0.7	10.5 ± 0.7
CCCOCCC [dipropyl ether] + CCCC[N+]1(C)CCCCC1.N#C[S-]						35.1 ± 2.4	32.9 ± 2.3	31 ± 2.1	29.3 ± 2	28 ± 1.9
CCc1ccccc1 [ethylbenzene] + CCCC[N+]1(C)CCCCC1.N#C[S-]	5.18 ± 0.35	5.18 ± 0.35	5.16 ± 0.35	5.15 ± 0.35	5.14 ± 0.35					
CCCCCCC [heptane] + CCCC[N+]1(C)CCCCC1.N#C[S-]	170 ± 12	142 ± 10	127 ± 9	111 ± 8	102 ± 7					
C=CCCCCCC [oct-1-ene] + CCCC[N+]1(C)CCCCC1.N#C[S-]	90.6 ± 6.2	83.7 ± 5.7	77.4 ± 5.3	71.5 ± 4.9	67.4 ± 4.6					
CCCC(C)=O [pentan-2-one] + CCCC[N+]1(C)CCCCC1.N#C[S-]						3.07 ± 0.21	3.08 ± 0.21	3.09 ± 0.21	3.11 ± 0.21	3.12 ± 0.21
Cc1ccccc1 [toluene] + CCCC[N+]1(C)CCCCC1.N#C[S-]	3.14 ± 0.21	3.16 ± 0.22	3.19 ± 0.22	3.21 ± 0.22	3.23 ± 0.22					

Other lines, results leading:

activity coefficient (318.15 K)	activity coefficient (328.15 K)	activity coefficient (338.15 K)	activity coefficient (348.15 K)	activity coefficient (358.15 K)	activity coefficient (318.2 K)	activity coefficient (328.2 K)	activity coefficient (338.2 K)	activity coefficient (348.2 K)	activity coefficient (358.2 K)	Compound
60.3 ± 4.1	55.5 ± 3.8	51.7 ± 3.5	47.9 ± 3.3	45.7 ± 3.1						C=CCCCCC [1-heptene] + CCCC[N+]1(C)CCCCC1.N#C[S-]
9.17 ± 0.63	9.19 ± 0.63	9.2 ± 0.6	9.23 ± 0.63	9.28 ± 0.63						C#CCCCCC [1-heptyne] + CCCC[N+]1(C)CCCCC1.N#C[S-]
6.07 ± 0.41	6.11 ± 0.42	6.16 ± 0.42	6.19 ± 0.42	6.22 ± 0.42						C#CCCCC [1-hexyne] + CCCC[N+]1(C)CCCCC1.N#C[S-]
13.6 ± 0.9	13.6 ± 0.9	13.6 ± 0.9	13.7 ± 0.9	13.7 ± 0.9						C#CCCCCCC [1-octyne] + CCCC[N+]1(C)CCCCC1.N#C[S-]
					13.1 ± 0.9	12.7 ± 0.9	12.4 ± 0.8	12 ± 0.8	11.8 ± 0.8	COC(C)(C)C [2-methoxy-2-methylpropane] + CCCC[N+]1(C)CCCCC1.N#C[S-]
1.9 ± 0.13	1.92 ± 0.13	1.95 ± 0.13	1.97 ± 0.13	1.99 ± 0.14						c1ccccc1 [benzene] + CCCC[N+]1(C)CCCCC1.N#C[S-]
44.3 ± 3	41.5 ± 2.8	37.4 ± 2.6	34.6 ± 2.4	32.7 ± 2.2						C1CCCCCC1 [cycloheptane] + CCCC[N+]1(C)CCCCC1.N#C[S-]
27.5 ± 1.9	24.2 ± 1.7	22.1 ± 1.5	19.9 ± 1.4	18.9 ± 1.3						C1CCCC1 [cyclopentane] + CCCC[N+]1(C)CCCCC1.N#C[S-]
487 ± 34	433 ± 30	390 ± 27	342 ± 24	311 ± 21						CCCCCCCCCC [decane] + CCCC[N+]1(C)CCCCC1.N#C[S-]
0.647 ± 0.044	0.637 ± 0.044	0.627 ± 0.043	0.618 ± 0.043	0.612 ± 0.043						CCO [ethanol] + CCCC[N+]1(C)CCCCC1.N#C[S-]
41.3 ± 2.8	37 ± 3	34.6 ± 2.4	32 ± 2	30.1 ± 2.1						C=CCCCC [hex-1-ene] + CCCC[N+]1(C)CCCCC1.N#C[S-]
124 ± 9	104 ± 7	89.3 ± 6.1	78.5 ± 5.4	68.5 ± 4.7						CCCCCC [hexane] + CCCC[N+]1(C)CCCCC1.N#C[S-]
0.366 ± 0.033	0.368 ± 0.033	0.37 ± 0.033	0.371 ± 0.033	0.373 ± 0.033						CO [methanol] + CCCC[N+]1(C)CCCCC1.N#C[S-]
333 ± 23	293 ± 20	267 ± 18	234 ± 16	214 ± 15						CCCCCCCCC [nonane] + CCCC[N+]1(C)CCCCC1.N#C[S-]
236 ± 16	206 ± 14	185 ± 13	161 ± 11	150 ± 10						CCCCCCCC [octane] + CCCC[N+]1(C)CCCCC1.N#C[S-]
					3.08 ± 0.21	3.09 ± 0.21	3.11 ± 0.21	3.12 ± 0.21	3.13 ± 0.21	CCC(=O)CC [pentan-3-one] + CCCC[N+]1(C)CCCCC1.N#C[S-]
2.28 ± 0.16	2.31 ± 0.16	2.34 ± 0.16	2.36 ± 0.16	2.38 ± 0.16						C1CCOC1 [tetrahydrofuran] + CCCC[N+]1(C)CCCCC1.N#C[S-]
1.1 ± 0.07	1.13 ± 0.07	1.17 ± 0.07	1.2 ± 0.08	1.23 ± 0.08						c1ccsc1 [thiophene] + CCCC[N+]1(C)CCCCC1.N#C[S-]
	0.332 ± 0.032	0.337 ± 0.032	0.342 ± 0.032	0.348 ± 0.032						O [water] + CCCC[N+]1(C)CCCCC1.N#C[S-]
